Results as given in PMC7961786, “Magic Peptide: Unique Properties of the LRR11 Peptide in the Activation of Leukotriene Synthesis in Human Neutrophils” (International Journal of Molecular Sciences, 2021).

Tests used:
[1] = system: human neutrophils (PMNLs), 5-LOX product synthesis; assay: 5-LOX metabolite synthesis in human neutrophils stimulated with opsonized S. typhimurium (HPLC); type: cell-based
Method: Figure 1 Effects of LRR11 and ODNs on the formation of LTB4 (A,B) and the sum of 5-LOX metabolites (ω-OH-LTB4, LTB4 and its isomers, and 5-HETE) (C) in human PMNLs. PMNLs (2 × 10^7) were incubated for 15 min at 37 °C without (black bars) or with 1 μM LRR11 (A, LRR11_first); then ODNs and LRR11 or LPS were added; various ways of adding ODN and LRR11 peptide are indicated. In control samples, Hanks’ solution was added instead of ODNs. After 20 min, 0.5 × 10^9 S. typhimurium bacterial cells were added for a further 15 min. The 5-LOX products were determined using HPLC. Values indicate mean ± SEM of five independent experiments performed in duplicate. * p < 0.05, ** p < 0.01, *** p < 0.005, compared with the control. # p < 0.05, ## p < 0.01 for pairs of data compared as indicated by two-way ANOVA followed by Tukey’s multiple comparison test.
Figure 3 Synthesis of the 5-LOX metabolites in PMNLs exposed to opsonized S. typhimurium bacteria in the presence of the RAGE antagonist FPS-ZM1. PMNLs (2 × 10^7) were incubated for 15 min at 37 °C without additives or with 0.15 µM FPS-ZM1, for the next 20 min the mixture was incubated with 1 µM ODNs without (black bars) or with 1 µM LRR11 (gray bars) before adding 5 × 10^8 S. typhimurium for 15 min. In control samples, Hanks’ solution was added instead of ODNs. The 5-LOX products were determined using HPLC. Graphical data are presented for LTB4 (A) or the sum of LTB4 and its isomers, ω-OH-LTB4 and 5-HETE, designed as Σ5LOX products (B).
Human neutrophils were isolated from freshly taken citrate-anticoagulated peripheral blood from healthy individuals using standard methods. Leukocyte-rich plasma was prepared by sedimentation of erythrocytes with 3% dextran T-500 at room temperature. For purification of granulocytes, centrifugation through Ficoll-Paque (density 1.077 g/mL) was used, followed by hypotonic lysis of the remaining erythrocytes. […] All methods were performed in accordance with the relevant instructions and regulations of the Ministry of Health of the Russian Federation and local legislation.
Bacteria (S. typhimurium IE 147 strain) obtained from the Collection of Gamaleya National Research Center of Epidemiology and Microbiology (Moscow, Russia) were grown in Luria–Bertani broth to a concentration of 1 × 10^9 colony-forming units (CFU)/mL. The bacteria were collected by centrifugation at 2000 g and opsonized immediately before the experiment for 30 min in 20% (v/v) fresh serum from the same donor whose blood was used to isolate neutrophils. Repeated centrifugation in Dulbecco’s solution was used to wash the bacteria.
The cell suspension (2 × 10^7 PMNLs in HBSS/HEPES, reaction volume of 6 mL) was cultured for 15 min in an incubator at 37 °C, 5% CO2. Then 1.0 µM ODN with or without 1.0 µM LRR11, or 2 µg/mL LPS, was added as indicated. After 20 min, the cells were stimulated with S. typhimurium (the ratio of bacteria to PMNLs was approximately 20:1) for the next 15 min [3]. The synthesis of 5-LOX metabolites was stopped by adding an equal volume of methanol at −20 °C with prostaglandin B2 as an internal standard. Samples were stored at −20 °C. The denatured cell suspension was centrifuged, and supernatants designated as water/methanol extracts.
To purify the water/methanol extracts, solid-phase extraction was used on Sep-Pak C18 cartridges (500 mg; Macherey-Nagel, Dueren, Germany), which were conditioned first with methanol, and then with water. Major 5-LOX metabolites were identified by comparing retention times with those of known compounds, as previously described.
Table S1. Effect of Chloroquine on 5-LOX product formation in PMNLs after ODN priming followed by the addition
of opsonized S. typhimurium bacteria.

[2] = system: 5′-biotinylated B-CpG; assay: TSM acoustic biosensor, peptide binding to immobilized B-CpG
Source text: To characterize the interaction of the studied synthetic ODNs with the LRR11 peptide, we applied the thickness shear mode (TSM) acoustic biosensor method, which is based on the investigation of ultrasonic waves in piezoelectric materials such as AT-cut quartz. This approach involved immobilizing a 5′-biotinylated ODN on the surface of TSM transducer covered by NeutrAvidin and then adding the LRR11 peptide. An unrelated peptide (URP) with a random primary structure ([…]) was used as a negative control. The measurement procedure was divided into several steps, in which each immobilization stage was followed by washing with an appropriate buffer solution; when peptide solutions at different concentrations (from 1 to 100 nM) were added to the surface-modified TSM transducer, a wash with Hanks buffer was used before increasing the peptide concentration.
Based on Langmuir isotherm Equation (1), (1) Δfcc=Δfsmaxc/KD+c where Δfs(c) is the frequency change at a certain peptide concentration under equilibrium conditions, (Δfs)max is the maximum frequency change, c is the peptide concentration, and KD is the equilibrium constant of dissociation, we estimated the (Δfs)max and KD values for binding of the LRR11 peptide to C-CpG and B-CpG (Table 3).
Eight MHz AT-cut piezoelectric quartz crystal transducer was obtained from CH Instruments, Austin, TX, USA. The transducer was covered on both sides with thin layers of gold that served as electrodes (working area 0.2 cm^2). Prior ODNs immobilization, the crystal was carefully cleaned with basic Piranha solution (29% NH3, 30% H2O and H2O2 with volumetric 1:5:1 ratio, respectively) for 25 min. After the thorough cleaning, the crystal was positioned between two silicon O-rings in a flow-through cell. The analyte was injected into the cell using a Genie Plus syringe pump (Kent Scientific, Torrington, CT, USA) at a flow rate of 50 μL/min. Each solution was applied until the resonance frequency stabilized. The surface of the transducer was first washed with deionized water, and then 125 μg/mL NeutrAvidin (WWR International GmbH, Vienna, Austria) solution in water was applied. Approximately 15 min were required to stabilize the signal at a constant NeutrAvidin flow rate. This was followed by washing with water to rinse out all non-chemisorbed NeutrAvidin molecules. Immobilization of ODN on the gold surface of the crystals is accomplished using avidin–biotin interactions. A 1 μM 5′-biotinylated ODN solution was injected over the neutravidin-modified surface and subsequently the crystal was washed again with water. The system was then equilibrated using Hanks buffer solution. This buffer was suitable for studying LRR11–ODN binding. Then LRR11 was used at concentrations of 1, 5, 10, 50 and 100 nM […] in Hanks buffer. After each addition of LRR11, the sensor surface was washed with Hanks buffer and LRR11 with the higher concentration was added. All binding experiments were carried out at room temperature. Buffer and sample solutions were introduced in a flow-through format. A network analyzer 8712ES (Agilent Technologies, Santa Clara, CA, USA) was used to measure the impedance properties of the sensor and determine fS and Rm.

[3] = system: RAGE; conditions: ref [53]; cited from earlier work
Source text: Most likely, CpG-ODN can serve as a linker between various receptor molecules of neutrophils. We hypothesize that some receptors on the cell surface have a multivalent ability to bind a broad spectrum of ligands, including ODNs, and that the stimulatory action of LRR11 on the CpG-ODNs may be related to cooperation with other receptors on the neutrophil surface.

[4] = system: human monocytes, leukotriene production; conditions: RAGE-dependent pathway; ref [55]; cited from earlier work
Source text: (§1) RAGE is shown to bind molecules, known as damage-associated molecular patterns (DAMPs), released by cells that die or are under conditions of inflammation.

[5] = system: vascular smooth muscle cells; conditions: ref [56]; cited from earlier work
Source text: as §1

KA ([2]; LRR11-B-CpG complex, KA = 1/KD)	−(Δfs)max ([2]; LRR11 to immobilized B-CpG, Langmuir fit, Hanks buffer, room temperature, LRR11 1-100 nM, three independent experiments)	Molecule	effect on 5-LOX activity / leukotriene synthesis ([1]; ODN alone, 1 µM, 20 min, then opsonized S. typhimurium 15 min, Figure 1, five independent experiments in duplicate)	Σ 5-LOX metabolites ([1]; Table S1, 2×10^7 PMNLs, 15 min at 37 °C without or with 5 µM Chloroquine, then ODN, after 20 min 0.5×10^9 opsonized S. typhimurium for 15 min, mean ± SEM, three independent experiments)	degradation of RAGE receptor after RAGE binding [3]	leukotriene production in human monocytes [4]	RAGE expression / LTB4 production in vascular smooth muscle cells [5]
0.018 ± 0.006 nM⁻¹	26.6 ± 3.8 Hz	5′-tcgtcgttttgtcgttttgtcgtt-3′ [B-CpG]	increased leukotriene synthesis	43.9 ± 4.1 ng/107 PMNLs	promoted rapid lysosomal degradation of the receptor	–	–
–	–	HMGB1: High-Mobility Group Box 1 (HMGB1) protein, a DAMP (protein, UniProt P09429 1-215, looked up) High mobility group protein B1: MGKGDPKKPRGKMSSYAFFVQTCREEHKKKHPDASVNFSEFSKKCSERWKTMSAKEKGKFEDMAKADKARYEREMKTYIPPKGETKKKFKDPNAPKRPPSAFFLFCSEYRPKIKGEHPGLSIGDVAKKLGEMWNNTAADDKQPYEKKAAKLKEKYEKDIAAYRAKGKPDAAKKGVVKAEKSKKKKEEEEDEEDEEDEEEEEDEEDEDEEEDDDDE	–	–	–	induce leukotriene production in human monocytes through a RAGE-dependent pathway	enhanced RAGE expression along with an increase in LTB4 production
